Data published in PubChem BioAssay (NCI).
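Interpolation was linear, between the two tested concentrations surrounding the appropriate level; five concentrations were tested over 48 hours in 96-well plates. GI50 = concentration required for 50% inhibition of growth. Definition used: TGI = concentration required for complete inhibition of growth.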

Columns and labels:
Assay in all cases: NCI anticancer screen, dose series, 48 h
786-0 renal = system: 786-0 renal
A498 renal = system: A498 renal
A549 NSCLC = system: A549 NSCLC
ACHN renal = system: ACHN renal
BT-549 breast = system: BT-549 breast
CAKI-1 renal = system: CAKI-1 renal
CCRF-CEM leukemia = system: CCRF-CEM leukemia
COLO 205 colon = system: COLO 205 colon
DU-145 prostate = system: DU-145 prostate
EKVX NSCLC = system: EKVX NSCLC
HCC-2998 colon = system: HCC-2998 colon
HCT-116 colon = system: HCT-116 colon
HCT-15 colon = system: HCT-15 colon
HL-60(TB) leukemia = system: HL-60(TB) leukemia
HOP-62 NSCLC = system: HOP-62 NSCLC
HOP-92 NSCLC = system: HOP-92 NSCLC
HS 578T breast = system: HS 578T breast
HT29 colon = system: HT29 colon
IGROV1 ovarian = system: IGROV1 ovarian
K-562 leukemia = system: K-562 leukemia
KM12 colon = system: KM12 colon
LOX IMVI melanoma = system: LOX IMVI melanoma
M14 melanoma = system: M14 melanoma
MALME-3M melanoma = system: MALME-3M melanoma
MCF7 breast = system: MCF7 breast
MDA-MB-231 breast = system: MDA-MB-231 breast
MDA-MB-435 = system: MDA-MB-435
MOLT-4 leukemia = system: MOLT-4 leukemia
NCI-H226 lung = system: NCI-H226 lung
NCI-H23 lung = system: NCI-H23 lung
NCI-H460 lung = system: NCI-H460 lung
NCI-H522 lung = system: NCI-H522 lung
NCI/ADR-RES ovarian = system: NCI/ADR-RES ovarian
OVCAR-3 ovarian = system: OVCAR-3 ovarian
OVCAR-4 ovarian = system: OVCAR-4 ovarian
OVCAR-5 ovarian = system: OVCAR-5 ovarian
OVCAR-8 ovarian = system: OVCAR-8 ovarian
PC-3 prostate = system: PC-3 prostate
RXF 393 renal = system: RXF 393 renal
SF-268 CNS = system: SF-268 CNS
SF-295 CNS = system: SF-295 CNS
SF-539 CNS = system: SF-539 CNS
SK-MEL-2 melanoma = system: SK-MEL-2 melanoma
SK-MEL-28 melanoma = system: SK-MEL-28 melanoma
SK-MEL-5 melanoma = system: SK-MEL-5 melanoma
SK-OV-3 ovarian = system: SK-OV-3 ovarian
SN12C renal = system: SN12C renal
SNB-19 CNS = system: SNB-19 CNS
SNB-75 CNS = system: SNB-75 CNS
SR leukemia = system: SR leukemia
SW-620 colon = system: SW-620 colon
T-47D breast = system: T-47D breast
TK-10 renal = system: TK-10 renal
U251 CNS = system: U251 CNS
UACC-257 melanoma = system: UACC-257 melanoma
UACC-62 melanoma = system: UACC-62 melanoma
UO-31 renal = system: UO-31 renal

`CC(=O)[C@@]1(O)[C@H](C)C[C@H]2[C@@H]3C=C(C)C4=Cc5c(cnn5-c5ccccc5)C[C@]4(C)[C@H]3[C@@H](O)C[C@@]21C` gave a GI50 (786-0 renal) of 2.23 µM, a TGI (786-0 renal) of 5.2 µM and a GI50 (A498 renal) of 3.45 µM. For the same molecule, the TGI (A498 renal) was 14.7 µM, the GI50 (A549 NSCLC) was 1.82 µM and the TGI (A549 NSCLC) was 13.9 µM. For the same molecule, the GI50 (ACHN renal) was 2.75 µM, the TGI (ACHN renal) was 11.3 µM and the GI50 (BT-549 breast) was 1.29 µM. For the same molecule, the TGI (BT-549 breast) was 5.17 µM, the GI50 (CAKI-1 renal) was 2.46 µM and the TGI (CAKI-1 renal) was 6.44 µM. It also gave a TGI (CCRF-CEM leukemia) of 1.72 µM, a GI50 (COLO 205 colon) of 1.86 µM and a TGI (COLO 205 colon) of 3.93 µM. The GI50 (DU-145 prostate) was 3.24 µM, the TGI (DU-145 prostate) was 14 µM and the GI50 (EKVX NSCLC) was 1.25 µM. For the same molecule, the TGI (EKVX NSCLC) was 11.4 µM, the GI50 (HCC-2998 colon) was 2.13 µM and the TGI (HCC-2998 colon) was 5.73 µM. It also gave a GI50 (HCT-116 colon) of 2.46 µM, a TGI (HCT-116 colon) of 11.4 µM and a GI50 (HCT-15 colon) of 0.81 µM. The TGI (HCT-15 colon) was 2.66 µM, the GI50 (HL-60(TB) leukemia) was 3.62 µM and the TGI (HL-60(TB) leukemia) was 41.9 µM. For the same molecule, the GI50 (HOP-62 NSCLC) was 3.58 µM, the TGI (HOP-62 NSCLC) was 9.75 µM and the GI50 (HOP-92 NSCLC) was 2.42 µM. The TGI (HOP-92 NSCLC) was 14 µM, the GI50 (HS 578T breast) was 2.97 µM and the TGI (HS 578T breast) was 12.9 µM. For the same molecule, the GI50 (HT29 colon) was 0.946 µM, the TGI (HT29 colon) was 4.38 µM and the GI50 (IGROV1 ovarian) was 2.64 µM. It also gave a TGI (IGROV1 ovarian) of 11 µM, a GI50 (K-562 leukemia) of 0.659 µM and a GI50 (KM12 colon) of 1.69 µM. The TGI (KM12 colon) was 4.5 µM, the GI50 (LOX IMVI melanoma) was 1.69 µM and the TGI (LOX IMVI melanoma) was 4.6 µM. It also gave a GI50 (M14 melanoma) of 2.84 µM, a TGI (M14 melanoma) of 13.6 µM and a GI50 (MALME-3M melanoma) of 1.76 µM. The TGI (MALME-3M melanoma) was 5.36 µM, the GI50 (MCF7 breast) was 1.97 µM and the TGI (MCF7 breast) was 11 µM. For the same molecule, the GI50 (MDA-MB-231 breast) was 2.04 µM, the TGI (MDA-MB-231 breast) was 5.4 µM and the GI50 (MDA-MB-435) was 2.44 µM. It also gave a TGI (MDA-MB-435) of 8.7 µM, a GI50 (MOLT-4 leukemia) of 0.842 µM and a TGI (MOLT-4 leukemia) of 8.7 µM. The GI50 (NCI-H226 lung) was 2.5 µM, the TGI (NCI-H226 lung) was 15.7 µM and the GI50 (NCI-H23 lung) was 2.48 µM. It also gave a TGI (NCI-H23 lung) of 9.96 µM, a GI50 (NCI-H460 lung) of 1.4 µM and a TGI (NCI-H460 lung) of 3.69 µM. The GI50 (NCI-H522 lung) was 2.83 µM, the TGI (NCI-H522 lung) was 8.85 µM and the GI50 (NCI/ADR-RES ovarian) was 1.91 µM. It also gave a TGI (NCI/ADR-RES ovarian) of 9.75 µM, a GI50 (OVCAR-3 ovarian) of 2.08 µM and a TGI (OVCAR-3 ovarian) of 4.84 µM. It also gave a GI50 (OVCAR-4 ovarian) of 3.85 µM, a TGI (OVCAR-4 ovarian) of 31.1 µM and a GI50 (OVCAR-5 ovarian) of 1.52 µM. The TGI (OVCAR-5 ovarian) was 5.76 µM, the GI50 (OVCAR-8 ovarian) was 2.8 µM and the TGI (OVCAR-8 ovarian) was 13.8 µM. The GI50 (PC-3 prostate) was 2.06 µM, the TGI (PC-3 prostate) was 10.1 µM and the GI50 (RXF 393 renal) was 1.31 µM. The TGI (RXF 393 renal) was 6.42 µM, the GI50 (SF-268 CNS) was 2.81 µM and the TGI (SF-268 CNS) was 16.6 µM. The GI50 (SF-295 CNS) was 1.73 µM, the TGI (SF-295 CNS) was 3.53 µM and the GI50 (SF-539 CNS) was 1.22 µM. For the same molecule, the TGI (SF-539 CNS) was 2.85 µM, the GI50 (SK-MEL-2 melanoma) was 2.45 µM and the TGI (SK-MEL-2 melanoma) was 5.88 µM. It also gave a GI50 (SK-MEL-28 melanoma) of 3.22 µM, a TGI (SK-MEL-28 melanoma) of 13 µM and a GI50 (SK-MEL-5 melanoma) of 1.61 µM. It also gave a TGI (SK-MEL-5 melanoma) of 4.21 µM, a GI50 (SK-OV-3 ovarian) of 0.76 µM and a TGI (SK-OV-3 ovarian) of 10.5 µM. For the same molecule, the GI50 (SN12C renal) was 1.4 µM, the TGI (SN12C renal) was 12.4 µM and the GI50 (SNB-19 CNS) was 3.29 µM. The TGI (SNB-19 CNS) was 14.2 µM, the GI50 (SNB-75 CNS) was 2.65 µM and the TGI (SNB-75 CNS) was 11 µM. For the same molecule, the GI50 (SR leukemia) was 1.77 µM, the GI50 (SW-620 colon) was 1.91 µM and the TGI (SW-620 colon) was 4.27 µM. The GI50 (T-47D breast) was 2.3 µM, the TGI (T-47D breast) was 10.3 µM and the GI50 (TK-10 renal) was 1.97 µM. For the same molecule, the TGI (TK-10 renal) was 6.08 µM, the GI50 (U251 CNS) was 1.51 µM and the TGI (U251 CNS) was 6.23 µM. The GI50 (UACC-257 melanoma) was 4.06 µM, the TGI (UACC-257 melanoma) was 13.4 µM and the GI50 (UACC-62 melanoma) was 2.24 µM. It also gave a TGI (UACC-62 melanoma) of 5.76 µM, a GI50 (UO-31 renal) of 2.08 µM and a TGI (UO-31 renal) of 7.03 µM.
